These results are taken from patent US20260137703A1, “2-AMINO-PYRIDO[2,3-D]PYRIMIDIN-7(8H)-ONE AND 7-AMINO-1-PYRIMIDO[4,5-D]PYRIMIDIN-2(1 H)-ONE DERIVATIVES AS EGFR INHIBITORS FOR THE TREATMENT OF CANCER” (Cancer Research Technology Limited, priority 2022, published 2026).

Assay [1] concerns the target T1, Phospho-EGFR (Tyr1068) in H1975 C797S cells (CRISPR-edited EGFR C797S) (Homo sapiens, UniProt P00533, C797S/L858R/T790M).
T1 construct: host or cells: H1975 C797S (CRISPR-edited)
Briefly: HTRF pEGFR/total EGFR in H1975 C797S cells. It is filed as cell-based. To be noted: ratio pEGFR/total EGFR, compound 3 hours. In short, it runs like this:
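Readout is the HTRF-measured Tyr1068 phospho-EGFR to total EGFR ratio, normalised to the 0 μM control as percent. Preceding this, CRISPR-edited H1975 C797S cells, plated 24 h earlier, were exposed 3 h to duplicate compound doses in medium with 0.1% DMSO, then lysed on a shaker.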
(TR-FRET usually uses a lanthanide donor and a delayed reading to cut background.)

In assay [2] the target is CtermHisTag-mEGFR Wild type (Homo sapiens, UniProt P00533). Briefly: biochemical.
Assay [3] addresses T2, Phospho-EGFR (Tyr1068) in H1975 cells (Homo sapiens, UniProt P00533, L858R/T790M).
T2 construct: host or cells: H1975
Briefly: HTRF pEGFR/total EGFR in H1975 cells. The class given is cell-based. To be noted: ratio pEGFR/total EGFR, compound 3 hours. In short, it runs like this:
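Readout is the phospho-EGFR (Tyr1068) to total EGFR HTRF ratio, expressed relative to 0 μM control. Adhered H1975 cells were exposed to compound for 3 hours at 0.1% DMSO, duplicate wells, then lysed for 30 min at room temperature before two-wavelength fluorescence reading.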

Assay [4] concerns the target T3, Phospho-EGFR (Tyr1068) in A431 cells (Homo sapiens, UniProt P00533).
T3 construct: endogenous in cells; host or cells: A431
Briefly: HTRF pEGFR/total EGFR in A431 cells with EGF stimulation. It is filed as cell-based. To be noted: ratio pEGFR/total EGFR, compound 2.5 hours then 100 ng/ml EGF 30 mins. In short, it runs like this:
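Values are pEGFR(Tyr1068)/total EGFR HTRF ratios (665/620 nm) given as percent of the 0 μM control. Adhered A431 cells (20,000 per well, 24 h) had 2.5 h compound pretreatment in 0.1% DMSO, then 30 min of 100 ng/ml EGF before lysis.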

Structures are written as SMILES. Counter-ions that a name gives are not always drawn. Where only a bound is given, the exact number is not on record here.

T1 sequence (P00533 25-1210 T790M/C797S/L858R): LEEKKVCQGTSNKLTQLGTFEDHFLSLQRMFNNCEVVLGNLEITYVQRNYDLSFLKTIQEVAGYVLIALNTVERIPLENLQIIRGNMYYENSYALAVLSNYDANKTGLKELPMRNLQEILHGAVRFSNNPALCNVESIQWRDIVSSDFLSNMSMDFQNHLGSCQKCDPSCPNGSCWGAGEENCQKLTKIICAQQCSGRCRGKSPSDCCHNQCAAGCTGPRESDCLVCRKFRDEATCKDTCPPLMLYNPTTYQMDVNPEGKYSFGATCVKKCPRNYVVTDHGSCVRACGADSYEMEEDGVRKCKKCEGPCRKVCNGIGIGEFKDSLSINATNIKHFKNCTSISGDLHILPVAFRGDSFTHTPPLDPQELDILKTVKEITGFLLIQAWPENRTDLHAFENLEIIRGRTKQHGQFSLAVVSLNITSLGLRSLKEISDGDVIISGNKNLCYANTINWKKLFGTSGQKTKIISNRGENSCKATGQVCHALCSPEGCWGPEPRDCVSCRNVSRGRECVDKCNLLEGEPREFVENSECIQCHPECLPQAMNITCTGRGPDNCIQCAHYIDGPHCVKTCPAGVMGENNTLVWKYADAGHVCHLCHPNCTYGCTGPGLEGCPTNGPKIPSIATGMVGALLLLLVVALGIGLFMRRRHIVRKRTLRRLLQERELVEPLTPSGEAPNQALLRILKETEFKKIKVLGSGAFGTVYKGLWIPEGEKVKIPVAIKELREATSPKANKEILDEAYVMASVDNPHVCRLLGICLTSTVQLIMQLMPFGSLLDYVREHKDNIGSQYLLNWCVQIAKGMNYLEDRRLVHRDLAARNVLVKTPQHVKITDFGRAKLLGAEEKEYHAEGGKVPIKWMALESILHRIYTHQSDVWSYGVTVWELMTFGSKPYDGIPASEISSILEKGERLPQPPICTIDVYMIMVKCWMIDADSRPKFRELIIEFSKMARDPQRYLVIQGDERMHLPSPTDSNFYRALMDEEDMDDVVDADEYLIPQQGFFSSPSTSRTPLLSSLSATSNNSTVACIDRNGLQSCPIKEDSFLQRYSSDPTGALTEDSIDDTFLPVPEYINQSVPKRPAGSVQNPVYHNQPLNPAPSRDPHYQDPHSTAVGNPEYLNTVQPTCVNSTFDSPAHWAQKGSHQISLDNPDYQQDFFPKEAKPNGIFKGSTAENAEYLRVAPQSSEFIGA
Chain of CtermHisTag-mEGFR Wild type (P00533 whole entry): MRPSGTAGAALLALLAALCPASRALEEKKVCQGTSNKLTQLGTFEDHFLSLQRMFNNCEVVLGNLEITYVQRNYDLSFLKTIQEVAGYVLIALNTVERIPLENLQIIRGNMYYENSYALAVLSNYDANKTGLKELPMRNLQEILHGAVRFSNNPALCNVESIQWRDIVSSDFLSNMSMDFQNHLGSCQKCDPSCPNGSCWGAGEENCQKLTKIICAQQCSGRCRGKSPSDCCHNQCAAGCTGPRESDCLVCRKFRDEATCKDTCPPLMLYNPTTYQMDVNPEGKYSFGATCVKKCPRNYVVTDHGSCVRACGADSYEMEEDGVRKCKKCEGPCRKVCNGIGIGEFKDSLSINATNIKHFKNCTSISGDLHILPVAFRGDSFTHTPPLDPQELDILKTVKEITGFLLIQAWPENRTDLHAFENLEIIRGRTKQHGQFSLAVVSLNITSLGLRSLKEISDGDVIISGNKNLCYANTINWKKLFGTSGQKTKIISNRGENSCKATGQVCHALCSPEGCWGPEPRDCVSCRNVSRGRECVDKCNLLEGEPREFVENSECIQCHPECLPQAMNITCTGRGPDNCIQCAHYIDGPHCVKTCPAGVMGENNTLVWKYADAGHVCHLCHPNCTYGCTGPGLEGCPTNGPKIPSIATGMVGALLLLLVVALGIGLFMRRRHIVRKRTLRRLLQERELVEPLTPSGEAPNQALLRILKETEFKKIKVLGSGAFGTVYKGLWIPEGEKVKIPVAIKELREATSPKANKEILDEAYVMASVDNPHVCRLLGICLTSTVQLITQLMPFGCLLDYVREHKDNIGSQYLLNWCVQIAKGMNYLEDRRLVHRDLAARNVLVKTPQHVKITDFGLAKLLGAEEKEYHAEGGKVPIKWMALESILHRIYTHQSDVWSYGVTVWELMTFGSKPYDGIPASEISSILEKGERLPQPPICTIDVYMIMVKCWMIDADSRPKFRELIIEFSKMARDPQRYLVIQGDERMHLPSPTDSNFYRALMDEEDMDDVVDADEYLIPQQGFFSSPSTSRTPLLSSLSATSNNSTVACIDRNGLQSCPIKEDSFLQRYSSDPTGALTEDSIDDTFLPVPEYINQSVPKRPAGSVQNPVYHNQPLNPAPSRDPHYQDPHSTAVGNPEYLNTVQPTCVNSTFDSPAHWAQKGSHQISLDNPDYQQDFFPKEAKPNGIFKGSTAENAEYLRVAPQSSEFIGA
T2 sequence (P00533 25-1210 T790M/L858R): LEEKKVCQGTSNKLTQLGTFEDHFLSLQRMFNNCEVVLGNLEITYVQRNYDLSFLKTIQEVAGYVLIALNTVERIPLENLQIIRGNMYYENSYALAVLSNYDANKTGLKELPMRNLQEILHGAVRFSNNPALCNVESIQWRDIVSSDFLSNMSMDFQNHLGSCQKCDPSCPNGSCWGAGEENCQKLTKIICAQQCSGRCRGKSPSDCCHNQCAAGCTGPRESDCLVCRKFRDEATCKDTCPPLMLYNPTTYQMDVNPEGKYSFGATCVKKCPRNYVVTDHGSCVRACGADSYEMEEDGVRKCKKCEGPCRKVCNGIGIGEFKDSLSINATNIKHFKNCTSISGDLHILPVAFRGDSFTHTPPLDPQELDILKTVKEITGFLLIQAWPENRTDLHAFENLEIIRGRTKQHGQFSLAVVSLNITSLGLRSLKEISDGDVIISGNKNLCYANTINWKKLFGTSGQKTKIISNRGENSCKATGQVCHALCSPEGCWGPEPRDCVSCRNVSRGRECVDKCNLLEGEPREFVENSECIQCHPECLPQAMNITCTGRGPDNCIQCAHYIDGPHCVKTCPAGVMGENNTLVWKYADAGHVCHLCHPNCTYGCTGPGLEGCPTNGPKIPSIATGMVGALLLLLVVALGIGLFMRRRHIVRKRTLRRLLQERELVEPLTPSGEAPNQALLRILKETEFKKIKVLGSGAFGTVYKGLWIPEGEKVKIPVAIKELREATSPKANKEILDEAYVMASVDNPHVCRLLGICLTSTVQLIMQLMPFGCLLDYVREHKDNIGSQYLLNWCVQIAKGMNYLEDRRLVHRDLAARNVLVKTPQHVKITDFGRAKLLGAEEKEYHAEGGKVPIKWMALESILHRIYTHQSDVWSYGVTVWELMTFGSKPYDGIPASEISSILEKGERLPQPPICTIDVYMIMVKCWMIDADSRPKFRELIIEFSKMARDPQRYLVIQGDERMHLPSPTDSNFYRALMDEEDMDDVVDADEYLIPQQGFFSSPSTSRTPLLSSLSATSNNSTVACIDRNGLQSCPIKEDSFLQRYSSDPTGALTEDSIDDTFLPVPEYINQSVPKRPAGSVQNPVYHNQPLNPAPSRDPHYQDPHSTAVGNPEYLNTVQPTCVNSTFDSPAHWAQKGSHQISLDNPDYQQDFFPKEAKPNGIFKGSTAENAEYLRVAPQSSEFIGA
T3 sequence (P00533 25-1210): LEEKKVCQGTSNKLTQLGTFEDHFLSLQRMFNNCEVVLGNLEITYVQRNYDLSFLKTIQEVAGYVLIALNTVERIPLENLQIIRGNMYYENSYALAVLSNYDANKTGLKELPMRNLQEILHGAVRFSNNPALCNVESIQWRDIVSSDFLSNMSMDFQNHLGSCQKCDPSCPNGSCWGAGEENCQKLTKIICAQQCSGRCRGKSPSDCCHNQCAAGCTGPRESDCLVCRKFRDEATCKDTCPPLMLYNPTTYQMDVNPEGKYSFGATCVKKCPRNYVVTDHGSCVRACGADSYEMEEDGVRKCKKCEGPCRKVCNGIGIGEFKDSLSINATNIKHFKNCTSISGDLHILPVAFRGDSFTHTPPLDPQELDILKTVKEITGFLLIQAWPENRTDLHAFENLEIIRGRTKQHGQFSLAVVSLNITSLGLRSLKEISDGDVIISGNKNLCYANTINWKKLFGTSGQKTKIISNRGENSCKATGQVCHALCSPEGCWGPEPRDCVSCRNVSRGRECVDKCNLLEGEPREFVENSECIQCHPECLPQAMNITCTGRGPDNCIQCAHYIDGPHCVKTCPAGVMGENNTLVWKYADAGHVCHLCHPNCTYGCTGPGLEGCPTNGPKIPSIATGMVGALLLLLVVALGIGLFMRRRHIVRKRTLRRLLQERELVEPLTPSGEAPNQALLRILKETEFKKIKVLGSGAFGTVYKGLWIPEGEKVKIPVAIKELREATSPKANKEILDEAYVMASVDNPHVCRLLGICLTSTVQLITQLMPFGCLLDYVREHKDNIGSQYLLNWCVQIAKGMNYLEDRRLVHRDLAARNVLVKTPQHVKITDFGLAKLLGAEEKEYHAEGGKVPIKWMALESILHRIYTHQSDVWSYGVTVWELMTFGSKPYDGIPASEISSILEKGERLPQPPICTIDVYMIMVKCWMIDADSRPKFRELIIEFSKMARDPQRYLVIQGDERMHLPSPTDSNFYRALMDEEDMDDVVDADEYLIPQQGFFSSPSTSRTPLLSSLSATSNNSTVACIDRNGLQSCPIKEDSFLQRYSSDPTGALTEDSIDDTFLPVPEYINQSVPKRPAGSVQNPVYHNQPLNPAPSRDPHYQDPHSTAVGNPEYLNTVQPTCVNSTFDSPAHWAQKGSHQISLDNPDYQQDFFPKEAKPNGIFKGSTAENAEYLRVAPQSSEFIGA

As usually defined, the IC50 is the concentration needed to halve the response being measured. As for `C#Cc1c(C)c(=O)n(Cc2cnoc2)c2nc(Nc3ccc(N4CCN(C)CC4)cc3)ncc12` [Example 175, 5-Ethynyl-6-methyl-2-{[4-(4-methylpiperazin-1-yl)phenyl]aminol}-8-(1,2-oxazol-4-ylmethyl)pyrido[2,3-d]pyrimidin-7-one], the IC50 in assay [1] is above 3000 nM; in assay [2] it was above 10000 nM; in assay [3], above 3000 nM; in assay [4], above 3 µM.
Turning to `C=Cc1cc(=O)n(-c2ccc(OC)cc2)c2nc(Nc3ccccc3OC)ncc12` [Example 157, 8-(4-Methoxyphenyl)-2-((2-methoxyphenyl)amino)-5-vinylpyrido[2,3-d]pyrimidin-7(8H)-one], the concentration for half-maximal inhibition (IC50) was above 3000 nM in assay [1], above 10000 nM in assay [2], above 3000 nM in assay [3] and above 3 µM in assay [4].
Take `C#Cc1c(-c2c(Cl)cccc2Cl)c(=O)n(C)c2nc(Nc3ccc(N(C)CCN(C)C)cc3)ncc12` [Example 134, 6-(2,6-dichlorophenyl)-2-[(4-{[2-(dimethylamino)ethyl](methyl)amino}phenyl)amino]-5-ethynyl-8-methylpyrido[2,3-d]pyrimidin-7-one]: the concentration for half-maximal inhibition (IC50) in assay [1] is above 3000 nM; in assay [2], above 10000 nM; in assay [3], above 3000 nM; in assay [4] it was above 3 µM.
`C#Cc1cc(=O)n(C2CCCC2)c2nc(Nc3ccc(N4CCN(C)CC4)cc3)ncc12` [Example 78, 8-cyclopentyl-5-ethynyl-2-((4-(4-methylpiperazin-1-yl)phenyl)amino)pyrido[2,3-d]pyrimidin-7(8H)-one]: the IC50 is below 500 nM in assay [1], below 1000 nM in assay [2], below 500 nM in assay [3] and above 3 µM in assay [4].
For the molecule `C#Cc1cc(=O)n(-c2ccccc2)c2nc(Nc3cnn(C)c3)ncc12` [Example 25, 5-Ethynyl-2-[(1-methylpyrazol-4-yl)amino]-8-phenylpyrido[2,3-d]pyrimidin-7-one], the half-maximal inhibitory concentration (IC50) is 1000 to 3000 nM in assay [1], below 1000 nM in assay [2], 1000 to 3000 nM in assay [3] and above 3 µM in assay [4].
On to `C#Cc1cc(=O)n(-c2ccccc2)c2nc(Nc3ccc(N(C)CCN(C)C)c(C)c3)ncc12` [Example 32, 2-[(4-{[2-(Dimethylamino)ethyl](methyl)amino}-3-methylphenyl)amino]-5-ethynyl-8-phenylpyrido[2,3-d]pyrimidin-7-one], for which the concentration for half-maximal inhibition (IC50) in assay [1] is below 500 nM; in assay [2], below 1000 nM; in assay [3], below 500 nM; in assay [4], above 3 µM.
As to `C#Cc1cc(=O)n2c3nc(ncc13)Nc1ccc(N3CCN(C)CC3)c(c1)COCCCC2` [Example 231, 1^5-Ethynyl-3^4-(4-methylpiperazin-1-yl)-1^7,1^8-dihydro-5-oxa-2-aza-1(2,8)-pyrido[2,3-d]pyrimidina-3(1,3)-benzenacyclononaphan-1^7-one], the 50% inhibitory concentration (IC50) in assay [1] was below 500 nM; in assay [2], below 1000 nM; in assay [3] it was below 500 nM; in assay [4], 1 to 3 µM.
Take `C#Cc1cc(=O)n(C2CCCCC2)c2nc(Nc3ccc(N4CCN(C)CC4)cc3)ncc12` [Example 68, 8-Cyclohexyl-5-ethynyl-2-((4-(4-methylpiperazin-1-yl)phenyl)amino)pyrido[2,3-d]pyrimidin-7(8H)-one]: the IC50 in assay [1] is 500 to 1000 nM; in assay [2], below 1000 nM; in assay [3] it was below 500 nM; in assay [4], 1 to 3 µM.
The matching figures for `C#Cc1cc(=O)[nH]c2nc(Nc3ccc(N4CCN(C)CC4)c(CNC(=O)C=C)c3)ncc12` [Example 201]: 500 to 1000 nM, below 1000 nM, below 500 nM and above 3 µM.
On to `C#Cc1cc(=O)n2c3nc(ncc13)Nc1ccc(N3CCN(C)CC3)c(c1)OCCC[C@H]2C` [Example 239, (R)-1^5-ethynyl-8-methyl-3^4-(4-methylpiperazin-1-yl)-1^7,1^8-dihydro-4-oxa-2-aza-1(2,8)-pyrido[2,3-d]pyrimidina-3(1,3)-benzenacyclooctaphan-1^7-one], for which the 50% inhibitory concentration (IC50) in assay [1] was below 500 nM; in assay [2], below 1000 nM; in assay [3] it was below 500 nM; in assay [4] it was above 3 µM.
As to `C#Cc1cc(=O)n(-c2ccccc2)c2nc(Nc3ccc(C4CCNCC4)cc3)ncc12` [Example 22, 5-Ethynyl-8-phenyl-2-{[4-(piperidin-4-yl)phenyl]amino}pyrido[2,3-d]pyrimidin-7-one], the IC50 is below 500 nM in assay [1], below 1000 nM in assay [2], below 500 nM in assay [3] and above 3 µM in assay [4].
Turning to `C#Cc1cc(=O)n(C2CCCC2)c2nc(Nc3cccc(N(C)[C@H]4CC[C@H](CS(C)(=O)=O)CC4)c3)ncc12` [Example 206], the 50% inhibitory concentration (IC50) in assay [1] was above 3000 nM; in assay [2], below 1000 nM; in assay [3], above 3000 nM; in assay [4] it was above 3 µM.
Take `C#Cc1c(C2CC2)c(=O)n(C)c2nc(Nc3ccc(N4CCN(C)CC4)cc3)ncc12` [Example 148, 6-cyclopropyl-5-ethynyl-8-methyl-2-{[4-(4-methylpiperazin-1-yl)phenyl]amino}pyrido[2,3-d]pyrimidin-7-one]: the IC50 in assay [1] is above 3000 nM; in assay [2], above 10000 nM; in assay [3] it was above 3000 nM; in assay [4] it was above 3 µM.
As for `C#Cc1cc(=O)n([C@H]2CC[C@@H](NC(=O)CC(=O)O)CC2)c2nc(Nc3ccc(N4CCN(C)CC4)cc3)ncc12` [Example 99, 2-{[(1s,4s)-4-(5-Ethynyl-2-{[4-(4-methylpiperazin-1-yl)phenyl]amino}-7-oxopyrido[2,3-d]pyrimidin-8-yl)cyclohexyl]carbamoyl}acetic acid], the IC50 is above 3000 nM in assay [1], below 1000 nM in assay [2], 1000 to 3000 nM in assay [3] and above 3 µM in assay [4].
Taken in the same sequence, the figures for `C#Cc1cc(=O)n2c3nc(ncc13)Nc1ccc(N3CCN(C)CC3)c(c1)CN(C)C(=O)CC2` [Example 223, 1^5-Ethynyl-5-methyl-3^4-(4-methylpiperazin-1-yl)-1^7,1^8-dihydro-2,5-diaza-1(2,8)-pyrido[2,3-d]pyrimidina-3(1,3)-benzenacyclooctaphane-1^7,6-dione] were below 500 nM, below 1000 nM, below 500 nM and 1 to 3 µM.
Taken in the same sequence, the figures for `C#Cc1cc(=O)n([C@H]2CC[C@@H](NC(=O)CCN(C)C)CC2)c2nc(Nc3ccc(N4CCN(C)CC4)cc3)ncc12` [Example 96, 3-(Dimethylamino)-N-[(1s,4s)-4-(5-ethynyl-2-{[4-(4-methylpiperazin-1-yl)phenyl]amino}-7-oxopyrido[2,3-d]pyrimidin-8-yl)cyclohexyl]propanamide] were above 3000 nM, below 1000 nM, 1000 to 3000 nM and above 3 µM.
The matching figures for `C#Cc1cc(=O)n(C2CCCC2)c2nc(Nc3cccc(CN4CCC(CS(C)(=O)=O)CC4)c3)ncc12` [Example 183]: above 3000 nM, above 10000 nM, above 3000 nM and above 3 µM.
For `C#Cc1cc(=O)n([C@@H]2CCCN(C(=O)CC)C2)c2nc(Nc3ccc(N(C)CCN(C)C)cc3)ncc12` [Example 77, (R)-2-((4-((2-(Dimethylamino)ethyl)(methyl)amino)phenyl)amino)-5-ethynyl-8-(1-propionylpiperidin-3-yl)pyrido[2,3-d]pyrimidin-7(8H)-one trifluoroacetic acid salt], the IC50 was above 3000 nM in assay [1], above 10000 nM in assay [2], above 3000 nM in assay [3] and above 3 µM in assay [4].
In the case of `C#Cc1cc(=O)n([C@H]2CC[C@H](NC(=O)c3ccnnc3)CC2)c2nc(Nc3ccc(N4CCN(C)CC4)cc3)ncc12` [Example 89, N-[(1r,4r)-4-(5-Ethynyl-2-{[4-(4-methylpiperazin-1-yl)phenyl]amino}-7-oxopyrido[2,3-d]pyrimidin-8-yl)cyclohexyl]pyridazine-4-carboxamide], the IC50 in assay [1] is below 500 nM; in assay [2], below 1000 nM; in assay [3], below 500 nM; in assay [4] it was above 3 µM.
Take `C#Cc1cc(=O)n(C)c2nc(Nc3ccc(N4CCN(C)CC4)cc3)ncc12` [Example 45, 5-Ethynyl-8-methyl-2-{[4-(4-methylpiperazin-1-yl)phenyl]amino}pyrido[2,3-d]pyrimidin-7-one]: the half-inhibitory concentration (IC50) was below 500 nM in assay [1], below 1000 nM in assay [2], below 500 nM in assay [3] and above 3 µM in assay [4].
In the case of `C#Cc1cc(=O)n(-c2ccccc2)c2nc(Nc3cnn(C4CCN(C)CC4)c3)ncc12` [Example 19, 5-Ethynyl-2-{[1-(1-methylpiperidin-4-yl)pyrazol-4-yl]amino}-8-phenylpyrido[2,3-d]pyrimidin-7-one], the IC50 in assay [1] was 500 to 1000 nM; in assay [2] it was below 1000 nM; in assay [3], below 500 nM; in assay [4], above 3 µM.
